Common to all, as to format: cell-based
For assay [1], the system named is rat embryonic cortical neurons. The experiment in a line: synaptopHluorin fluorescence at whole-well level, Zeiss Axiovert Z1 inverted epifluorescence microscope. From the text: By introduction into a high percentage of neurons plated at high density within a well, synaptopHluorins were used to measure synaptic vesicle cycling at the whole-well, population level. One way synaptopHluorin was introduced into neurons was by viral infection. Viral delivery of synaptopHluorin was used to validate the ability to measure the synaptic vesicle cycle at the population level. Adeno-associated virus (MOI=1000) was used to deliver synaptopHluorin into rat embryonic cortical neurons plated in 96-well optically-clear plastic-bottomed plates (Nunc) at 11 days in vitro. At 21 days in vitro, neurons were imaged on a Zeiss Axiovert Z1 inverted epifluoresence microscope using low magnification optics (10×, 0.45 NA objective) insufficient to resolve individual synapses. Neurons in the presence or absence of external Ca^++ were treated with ionomycin, a calcium ionophore that triggers synaptic vesicle exocytosis and the resulting fluorescence of synaptopHluorin.

For assay [2], the system named is Primary rat neuronal cultures. In words: synaptopHluorin fluorescence in 96-well plates on the plate::vision plate reader. The conditions noted are these: Tyrode's solution, read every 2 seconds for 1 minute. The protocol:
The plate::vision plate reader was evaluated for its ability to record the synaptic vesicle cycle in multiple wells in parallel. Primary rat neuronal cultures in 96-well plates were infected with the synaptopHluorin adeno-associated virus at 12 days in vitro. Culture medium was replaced with Tyrode's solution plus or minus external Ca^++. A baseline recording of fluorescence was measured in the entire plate on the plate::vision plate reader. Then, ionomycin was added to all wells, and fluorescence changes were measured every 2 seconds for 1 minute. […] These changes were similar to those observed when a similar experiment was performed on the Zeiss inverted epifluorescence microscope.

Assay [3] relates to rat embryonic cortical neurons. In words: sypHy fluorescence (synaptic vesicle exocytosis) on Fluoroskan Ascent FL plate reader. The conditions noted are these: 10 uM; GFP-fluorescence recorded at 5 Hz; 33 DIV. The method, then:
It was determined that a Fluoroskan Ascent FL plate reader is capable of measuring aspects of synaptic vesicle cycling, e.g., exocytosis, in neuronal cells expressing a synaptophysin-pHluorin reporter. Rat embryonic cortical neurons were cultured in Greiner uClear 96-well plates. At 7 DIV, cultures were infected with sypHy-AAV. At 33 DIV, culture media was replaced with assay buffer, the plate was loaded onto the Fluoroskan Ascent FL plate reader, and GFP-fluorescence was recorded at 5 Hz. This plate reader uses a photomultiplier tube (PMT) to measure the fluorescence levels in a single well at a time. A baseline fluorescence level was determined, ionomycin (10 uM) was added to induce synaptic vesicle exocytosis, and the resulting change in fluorescence was measured on by plate reader. […] (FIG. 27.)

In the case of `C[C@H](CCC(=O)O)C[C@H](C)C[C@H](C)C(=O)/C=C(\O)[C@H](C)C[C@H](C)C/C=C/[C@@H](C)[C@@H](O)[C@@H](C)[C@@H](O)C[C@@H]1CC[C@@](C)([C@H]2CC[C@@](C)([C@@H](C)O)O2)O1` [ionomycin], the “increase in synaptopHluorin signal” value in assay [1] (in the absence of external Ca++) is “about 3%”; in assay [1] (in the presence of external Ca++) it was “approximately 20%”. Besides, the increase in fluorescence is reported as under 5% in assay [2] (absence of Ca++) and “about 20%” in assay [2] (in the presence of Ca++). The “increase in fluorescence intensity” value in assay [3] was about 15%.

For the origin of these results see US20180136198A1, “SYNAPTIC VESICLE CYCLING ASSAYS AND SYSTEMS” (priority 2008, published 2018).
